≈ marks a conversion by molar mass, not a printed value. Where two headings read alike, the source gives them in different places.
Key:
[1] = in solvent, exposed to light; known; cited from earlier work
Human Kv7.2/7.3 = Human Kv7.2/7.3 (Homo sapiens, UniProt O43525+O43526); assay: In vitro screen of Kv7.2/7.3 voltage gated potassium channels (FluxOR, FLIPR); assay type: cell-based
Procedure: Human Kv7.2/7.3 cells are harvested, counted and seeded in black, clear-bottomed 96 well plates at a density of 50,000 cells per well in 100 μl volume and incubated overnight. The following day, media was removed and 40 μl of loading buffer (4.895 mL HBSS:HEPES, 50 μL probenecid, 50 μL power load, 5 μl FluxOR reagent) was added and incubated at room temperature for 30 minutes. After incubation loading buffer was removed and 40 μl of assay buffer added (4.45 ml HBSS:HEPES, 500 μl FluxOR assay buffer and 50 μL probenecid) and incubated for 10 minutes.

[2] = Pharmacokinetics of ezogabine prodrugs in mouse (SC, PO); conditions: male mice, PO 20 mg/kg, analyte Cmpd 1
Procedure: (§1) Blood was diluted by 10% with these stabilizers.
(§2) Extraction of the molecules was conducted by taking a 50 uL aliquot of plasma and adding 200 uL of acetonitrile containing 200 ng/mL tolbutamide as the internal standard. Samples were precipitated in a 96 well plate, centrifuges and an aliquot transferred to a new plate, dried down under heat and nitrogen and then reconstituted in the initial mobile phase conditions of the LC-MS/MS method. […] A standard curve was prepared from 5000 ng/mL to 1 ng/mL for each analyte. Concentration data from the bioanalytical run was analyzed by Phoenix Winnonlin version 8 for noncompartmental sparse sampling PK analysis, plotting of concentration time curves and tabulation of PK parameters.
Animals were asphyxiated by carbon dioxide gas, blood was collected by cardiac stick and they were euthanized by cervical dislocation.

[3] = Pharmacokinetics of ezogabine prodrugs in rat (IV, IM, PO); conditions: male SD rat, PO 20 mg/kg, analyte Cmpd 1
Procedure: as §1
as §2, with “noncompartmental” for “noncompartmental sparse sampling”
150 uL of blood were collected at predesignated time points. At completion of the study animals were asphyxiated by carbon dioxide gas and exsanguinated for euthanasia.

[4] = assay type: physicochemical; conditions: for % Conversion to dimer / Concentration of dimer: 8 mg/mL in SGF, 38° C.
From the text: The structure of the dimer is presented.

[5] = known value, cited from earlier work
[6] = Acid and organic solution stability, HPLC-UV 250 nm; conditions: 5 mg/mL; for % Remaining: room temp., normal light; for Colour of stability solution: room temperature
Procedure: An HPLC-UV Vis method was developed using 0.1% Formic acid in water as mobile phase A and 0.1% Formic acid in acetonitrile as mobile Phase B. A gradient method was developed ramping from 10% A to 90% B over 8 minutes and then returning to 10% A at 8.5 minutes on a 4.6×50 mm Zorbax C-18 column. Injections of 10 uL of stability solutions were injected for analyte detection.
[…] Aliquots were collected at serial time points and then diluted to a nominal concentration of 100 ug/mL for injection to the HPLC and 250 nm monitored by the diode array detector. Data at approximately 10 days is presented.
Aliquots were collected at serial time points and then diluted to a nominal concentration of 100 ug/mL for injection to the HPLC and 250 nm monitored by the diode array detector.
(§3) It was also evaluated at 2 N HCl at 37° C. Aliquots were collected at serial time points and then diluted to a nominal concentration of 100 ug/mL for injection to the HPLC and 250 nm monitored by the diode array detector.
as §3, §3, §3

[7] = patients receiving ezogabine (POTIGA); Potiga label; cited from earlier work

Sequence of Human Kv7.2/7.3 (O43526 whole entry): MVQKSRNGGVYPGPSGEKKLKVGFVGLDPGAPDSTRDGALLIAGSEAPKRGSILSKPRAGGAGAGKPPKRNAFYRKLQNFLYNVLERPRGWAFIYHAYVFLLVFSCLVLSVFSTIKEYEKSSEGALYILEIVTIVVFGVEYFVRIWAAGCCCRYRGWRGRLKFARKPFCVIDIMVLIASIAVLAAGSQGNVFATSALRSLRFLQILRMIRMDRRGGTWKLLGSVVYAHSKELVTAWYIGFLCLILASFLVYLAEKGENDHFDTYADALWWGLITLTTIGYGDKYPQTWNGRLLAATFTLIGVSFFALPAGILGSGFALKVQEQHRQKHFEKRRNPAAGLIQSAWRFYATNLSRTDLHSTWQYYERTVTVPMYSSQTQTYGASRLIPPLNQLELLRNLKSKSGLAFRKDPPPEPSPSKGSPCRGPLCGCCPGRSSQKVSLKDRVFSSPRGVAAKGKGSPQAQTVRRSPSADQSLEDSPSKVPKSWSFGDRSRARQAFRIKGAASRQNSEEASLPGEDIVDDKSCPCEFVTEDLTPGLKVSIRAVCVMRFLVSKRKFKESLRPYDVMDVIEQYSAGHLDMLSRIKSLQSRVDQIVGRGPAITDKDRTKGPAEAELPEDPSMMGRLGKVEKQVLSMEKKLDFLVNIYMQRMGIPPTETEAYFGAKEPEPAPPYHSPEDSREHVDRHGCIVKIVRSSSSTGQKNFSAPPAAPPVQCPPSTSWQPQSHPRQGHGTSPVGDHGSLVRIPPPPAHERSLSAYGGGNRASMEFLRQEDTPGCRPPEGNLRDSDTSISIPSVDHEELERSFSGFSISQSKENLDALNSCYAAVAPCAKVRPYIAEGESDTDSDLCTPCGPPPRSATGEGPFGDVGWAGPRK
Sequence of Human Kv7.2/7.3 (O43525 whole entry): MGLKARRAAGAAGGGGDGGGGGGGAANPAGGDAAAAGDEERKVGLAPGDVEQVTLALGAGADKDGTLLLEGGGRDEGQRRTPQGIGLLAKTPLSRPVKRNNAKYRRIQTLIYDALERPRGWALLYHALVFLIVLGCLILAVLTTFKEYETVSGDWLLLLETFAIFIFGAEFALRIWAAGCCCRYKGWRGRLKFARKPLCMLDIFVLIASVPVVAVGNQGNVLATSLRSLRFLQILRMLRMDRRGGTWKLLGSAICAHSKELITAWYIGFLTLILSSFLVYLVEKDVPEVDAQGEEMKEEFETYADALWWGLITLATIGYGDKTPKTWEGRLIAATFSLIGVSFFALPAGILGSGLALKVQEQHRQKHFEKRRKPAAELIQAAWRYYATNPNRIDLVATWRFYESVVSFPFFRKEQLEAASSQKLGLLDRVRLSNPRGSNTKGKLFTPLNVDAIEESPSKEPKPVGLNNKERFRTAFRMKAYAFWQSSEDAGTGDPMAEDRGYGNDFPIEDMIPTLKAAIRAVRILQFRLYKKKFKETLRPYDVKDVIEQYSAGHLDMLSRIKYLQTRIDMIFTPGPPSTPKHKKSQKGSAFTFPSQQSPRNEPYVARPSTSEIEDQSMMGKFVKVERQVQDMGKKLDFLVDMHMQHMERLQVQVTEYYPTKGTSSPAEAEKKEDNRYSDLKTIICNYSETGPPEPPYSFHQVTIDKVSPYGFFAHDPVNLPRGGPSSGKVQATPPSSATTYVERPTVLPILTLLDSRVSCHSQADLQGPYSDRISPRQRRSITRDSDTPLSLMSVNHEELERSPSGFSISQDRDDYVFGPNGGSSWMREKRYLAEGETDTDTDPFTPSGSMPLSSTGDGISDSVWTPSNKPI

Which “Time to degradation with light” value [1] does the source give for CCOC(=O)Nc1ccc(NCc2ccc(F)cc2)cc1N [Compound 1, Ezogabine] here?
Its value is 3 to 7 days.

And the EC50 (Human Kv7.2/7.3)?
Its EC50 is 1.6 µM.

What about the Cmax/D [2] of the same compound?
The Cmax/D was 148 ng/mL/mg/kg.

And the AUClast/D ([2]; 6 h)?
Its AUClast/D is 190 ng·h/mL/mg/kg.

What about the Cmax/D [3] of the same compound?
Its Cmax/D is 44.8 ng/mL/mg/kg.

What about the AUClast/D ([3]; 24 h) of the same compound?
Its AUClast/D is 280 ng·h/mL/mg/kg.

What about the “% Conversion to dimer” value ([4]; Time 0) of the same compound?
Its value is 0%.

And the Concentration of dimer ([4]; Time 0)?
The Concentration of dimer was 0 µg/mL.

What about the “% Conversion to dimer” value ([4]; Time 1 h) of the same compound?
The value was 0.250%.

What about the Concentration of dimer ([4]; Time 1 h) of the same compound?
Its Concentration of dimer is 0.0195 µg/mL.

And the “% Conversion to dimer” value ([4]; Time 4 h)?
Its value is 7.95%.

And the Concentration of dimer ([4]; Time 4 h)?
Its Concentration of dimer is 0.623 µg/mL.

And the “% Conversion to dimer” value ([4]; Time 8 h)?
Its value is 25.2%.

What about the Concentration of dimer ([4]; Time 8 h) of the same compound?
Its Concentration of dimer is 1.98 µg/mL.

What about the “Stability at low pH” value ([4]; low pH (1 N HCl) and simulated gastric fluid) of the same compound?
The value was “degrades and forms a chromophore dimer”.

And the Solubility ([5]; 0.1N NaCl)?
Its Solubility is 0.04 mg/mL (≈ 132 µM).

What about the Solubility ([5]; 0.1N NaOH) of the same compound?
Its Solubility is 0.04 mg/mL (≈ 132 µM).

And the Solubility ([5]; Ethanol)?
The Solubility was 20 mg/mL (≈ 65900 µM).

And the Solubility ([5]; Methanol)?
The Solubility was 54 mg/mL (≈ 178000 µM).

And the Solubility ([5]; Water)?
The Solubility was 0.05 mg/mL (≈ 165 µM).

What about the Solubility ([5]; listed as 0.1 Na2HPO4, determined in 0.1N K2HPO4) of the same compound?
The Solubility was 0.18 mg/mL (≈ 593 µM).

And the “% Remaining” value ([6]; 0.1N HCl, 267 h)?
The value was 50.7%.

And the “% Remaining” value ([6]; 1N HCl, 267 h)?
The value was 68.2%.

What about the “% Remaining” value ([6]; Acetonitrile, 219 h) of the same compound?
Its value is 44.9%.

What about the “% Remaining” value ([6]; Methanol, 267 h) of the same compound?
Its value is 41.3%.

And the “Colour of stability solution” value ([6]; acid solutions)?
The value was “turning light purple (indicating degradation) by Day 2”.

And the “Colour of stability solution” value ([6]; organic solvents)?
Its value is “did not begin turning purple until Day 7”.

What about the “Adverse reaction: abnormal coordination” value [7] of the same compound?
Its value is 7%.

And the “Adverse reaction: aphasia” value [7]?
The value was 4%.

What about the “Adverse reaction: asthenia” value [7] of the same compound?
The value was 5%.

What about the “Adverse reaction: balance disorder” value [7] of the same compound?
The value was 4%.

What about the “Adverse reaction: blurred vision” value [7] of the same compound?
The value was 5%.

What about the “Adverse reaction: confusional state” value [7] of the same compound?
The value was 9%.

What about the “Adverse reaction: diplopia” value [7] of the same compound?
The value was 7%.

And the “Adverse reaction: disturbance in attention” value [7]?
Its value is 6%.

What about the “Adverse reaction: dizziness” value [7] of the same compound?
The value was 23%.

And the “Adverse reaction: dysarthria” value [7]?
Its value is 4%.

And the “Adverse reaction: fatigue” value [7]?
Its value is 15%.

What about the “Adverse reaction: gait disturbance” value [7] of the same compound?
Its value is 4%.

What about the “Adverse reaction: memory impairment” value [7] of the same compound?
Its value is 6%.

And the “Adverse reaction: somnolence” value [7]?
Its value is 22%.

What about the “Adverse reaction: tremor” value [7] of the same compound?
The value was 8%.

What about the “Adverse reaction: vertigo” value [7] of the same compound?
The value was 8%.
